Patent US4740233A, “Substituted 1,2,4-triazolo[1,5-a]-pyrimidine-2-sulfonamides and compositions and methods of controlling undesired vegetation and suppressing the nitrification of ammonium nitrogen in soil” (The Dow Chemical Company, priority 1986, dated 1988)

Legend:
yellow nutsedge = test: Postemergent control of plant species; assay type: in vivo, Cyperus esculentus; conditions: Cyperus, post-emergence, 336 h, read-out: percent postemergent control
Outline: (§1)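 Spray emulsion: acetone stock at twice final concentration plus equal volume water with 0.1% wetting agent, applied to separated greenhouse beds at 2-4 leaf stage. Assessed at ~two weeks; score reflects growth reduction compared with untreated plants.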

cocklebur = test: Postemergent control of plant species; assay type: in vivo, Xanthium spp.; conditions: Xanthium strumarium, post-emergence, 336 h, read-out: percent postemergent control
Outline: as §1

pigweed = test: Postemergent control of plant species; assay type: in vivo, Amaranthus spp.; conditions: Amaranthus retroflexus, post-emergence, 336 h, read-out: percent postemergent control
Outline: as §1

soybean = test: Postemergent control of plant species; assay type: in vivo, Glycine max.; conditions: Glycine max, post-emergence, 336 h, read-out: percent postemergent control
Outline: as §1

barnyardgrass = test: Postemergent control of plant species; assay type: in vivo, Echinochloa crusgalli; conditions: Echinochloa crus-galli, post-emergence, 336 h, read-out: percent postemergent control
Outline: as §1

velvetleaf = test: Postemergent control of plant species; assay type: in vivo, Abutilon theophrasti; conditions: Abutilon theophrasti, post-emergence, 336 h, read-out: percent postemergent control
Outline: as §1

jimsonweed = test: Postemergent control of plant species; assay type: in vivo, Datura stramonium; conditions: Datura stramonium, post-emergence, 336 h, read-out: percent postemergent control
Outline: as §1

sugar beet = test: Postemergent control of plant species; assay type: in vivo, Beta saccharifera; conditions: Beta vulgaris, post-emergence, 336 h, read-out: percent postemergent control
Outline: as §1

yellow foxtail = test: Postemergent control of plant species; assay type: in vivo, Setaria lutescens; conditions: Setaria, post-emergence, 336 h, read-out: percent postemergent control
Outline: as §1

johnson grass = test: Postemergent control of plant species; assay type: in vivo, Sorghum halepense; conditions: Sorghum halepense, post-emergence, 336 h, read-out: percent postemergent control
Outline: as §1

rice = test: Postemergent control of plant species; assay type: in vivo, Oryza sativa; conditions: Oryza sativa, post-emergence, 336 h, read-out: percent postemergent control
Outline: as §1

wheat = test: Postemergent control of plant species; assay type: in vivo, Triticum aestivum; conditions: Triticum aestivum, post-emergence, 336 h, read-out: percent postemergent control
Outline: as §1

sorghum = test: Postemergent control of plant species; assay type: in vivo, Sorghum vulgare; conditions: Sorghum, post-emergence, 336 h, read-out: percent postemergent control
Outline: as §1

wild oats = test: Postemergent control of plant species; assay type: in vivo, Avena fatua; conditions: Avena fatua, post-emergence, 336 h, read-out: percent postemergent control
Outline: as §1

[1] = system: annual sugar beet variety (SLC03); test: Plant growth regulator activity, postemergence; assay type: in vivo; conditions: for minimal effective concentration: Beta vulgaris, post-emergence, 672 h, 4 weeks after spraying, read-out: Bolting Inhibition (postemergence), concentration with observed effect
From the text: (§2) Using a regular biennial variety, even a bolting-susceptible variety would require a cold treatment of around 10-16 weeks plus a hormone treatement in conjunction with specific light intensities. Thus, for a screening organism, we selected one which would consistently produce bolting on a regular schedule. The screen is run with an annual sugar beet variety (SLC03) provided by Dr. Richard J. Hecker, Fort Collins, Colo. This variety is an inbred which bolts in the 6- to 8-leaf stage without any need for vernalization. This allows the screen to be run entirely in the greenhouse with all 110 chemical compounds tested on one tray. The sugarbeets are grown in 3×3 inch square pots in a greenhouse sandy loam potting mix. The sugarbeets are sprayed with test compounds when they are 2 to 3 weeks old (2 true leaves). The compounds are dissolved in acetone and diluted with water containing Tween 20 as a wetting agent. The concentration of acetone in the final spray is 20% and the concentration of Tween 20 is 0.05 percent. The plants are examined for the appearance of a bolt 4 weeks after spraying.

annual morning glory = test: Postemergent control of plant species; assay type: in vivo, Ipomoea spp.; conditions: Ipomoea, post-emergence, 336 h, read-out: percent postemergent control
Outline: as §1

corn = test: Postemergent control of plant species; assay type: in vivo, Zea mays; conditions: Zea mays, post-emergence, 336 h, read-out: percent postemergent control
Outline: as §1

rape = test: Postemergent control of plant species; assay type: in vivo, Brassica napus; conditions: Brassica napus, post-emergence, 336 h, read-out: percent postemergent control
Outline: as §1

[2] = system: nitrification of ammonium nitrogen; test: Suppression of nitrification of ammonium nitrogen in soil; conditions: 27° C.
Outline: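 Value is % NH4-N remaining after a two-week, 27° C incubation of treated soil held at 1/3 bar tension moisture. Nitrate was measured with an ion-selective electrode after extraction with ammonium sulfate solution and 10 min shaking.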

crabgrass = test: Postemergent control of plant species; assay type: in vivo, Digitaria spp.; conditions: Digitaria sanguinalis, post-emergence, 336 h, read-out: percent postemergent control
Outline: as §1

cotton = test: Postemergent control of plant species; assay type: in vivo, Gossypium spp.; conditions: Gossypium hirsutum, post-emergence, 336 h, read-out: percent postemergent control
Outline: as §1

[3] = system: annual sugar beet variety (SLC03); test: Plant growth regulator activity, preemergence; assay type: in vivo; conditions: Beta vulgaris, pre-emergence; 6-7 weeks; read-out: Bolting Inhibition (preemergence), concentration with observed effect
From the text: as §2
Preemergence tests are conducted by spraying formulated chemical on seeds placed on potting soil. The sprayed seeds are then covered with 1/4 inch of potting soil and the pots are watered. Bolting is evaluated 6-7 weeks after the initiation of the test. At this time untreated plants have a vigorous bolting stem with visible flowers.

With `Cc1cccc(Cl)c1NS(=O)(=O)c1nc2ncc(Cl)cn2n1` [Compound 119] the pest or weed control at 500 ppm (yellow nutsedge) was 40%, the pest or weed control at 500 ppm (cocklebur) was 70% and the pest or weed control at 500 ppm (pigweed) was 0%. It also gave a plant injury at 500 ppm (soybean) of 0%, a pest or weed control at 500 ppm (barnyardgrass) of 0% and a pest or weed control at 500 ppm (velvetleaf) of 70%. For the same compound, the pest or weed control at 500 ppm (jimsonweed) was 90%, the plant injury at 500 ppm (sugar beet) was 50% and the pest or weed control at 500 ppm (yellow foxtail) was 0%. The pest or weed control at 500 ppm (johnson grass) was 80%, the plant injury at 500 ppm (rice) was 0% and the plant injury at 500 ppm (wheat) was 0%. The plant injury at 500 ppm (sorghum) was 0%, the pest or weed control at 500 ppm (wild oats) was 0% and the “observed effect (postemergence)” value ([1]; 400 ppm) was “stunting”. It also gave a minimal effective concentration [1] of 400 µg/mL, a pest or weed control at 500 ppm (annual morning glory) of 30% and a plant injury at 500 ppm (corn) of 30%. The plant injury at 500 ppm (rape) was 100%, the “% NH4-N Remaining After 2 Weeks Incubation” value ([2]; 0.06 ppm) was 23% and the “% NH4-N Remaining After 2 Weeks Incubation” value ([2]; 0.25 ppm) was 33%. The “% NH4-N Remaining After 2 Weeks Incubation” value ([2]; 1 ppm) was 69%, the “% NH4-N Remaining After 2 Weeks Incubation” value ([2]; 4 ppm) was 88% and the pest or weed control at 500 ppm (crabgrass) was 0%. For the same compound, the plant injury at 500 ppm (cotton) was 0%.

`Cc1ccccc1NS(=O)(=O)c1nc2ncc(Cl)cn2n1` [Compound 129] gave a minimal effective concentration [3] of 400 µg/mL and a minimal effective concentration [1] of 400 µg/mL.
